From publication PMC5430874 (Scientific Reports, 2017)
Numbering of substitutions follows the chain as printed.

Columns and labels:
Assay type in all cases: cell-based
untagged GPR139(WT) = biological target: T1, untagged GPR139(WT) (Homo sapiens, UniProt Q6DWJ6); experiment: Fluo-4 Ca2+-assay, untagged wild-type GPR139 in HEK293; conditions: untagged WT receptor
T1 construct: expressed in transfected cells; host or cells: HEK293
T1 sequence (Q6DWJ6 1-353): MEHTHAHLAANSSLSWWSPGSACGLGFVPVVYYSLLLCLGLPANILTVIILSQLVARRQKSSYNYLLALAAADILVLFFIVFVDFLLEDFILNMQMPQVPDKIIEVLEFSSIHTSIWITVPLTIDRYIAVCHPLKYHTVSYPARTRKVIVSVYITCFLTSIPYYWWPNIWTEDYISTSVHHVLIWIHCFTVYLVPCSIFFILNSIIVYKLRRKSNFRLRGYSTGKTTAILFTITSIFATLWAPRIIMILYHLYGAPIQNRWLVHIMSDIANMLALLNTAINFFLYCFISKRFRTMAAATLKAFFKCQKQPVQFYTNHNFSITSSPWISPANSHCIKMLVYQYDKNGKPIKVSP
Excerpt: (§1) To study the influence of specific amino acids in the predicted binding pocket on receptor function, the desired mutations were introduced into an N-terminally c-myc-tagged wild type human GPR139 (NM_001002911.3) in the pEGFP-N1 vector (BD Biosciences)[32], [33]. As previously described, these plasmids carry the signal peptide of mGluR5 to promote cell surface expression followed by a c-myc epitope to enable detection of total and surface expression by ELISA, followed by an engineered MluI and NotI site for easy insertion of the receptor of interest. Furthermore, the start-codon in the GPR139 sequence was deleted to ensure c-myc-tagging. […]
(§2) The Ca^2+ measurements were preformed using the Fluo-4 NW Calcium Assay Kit (Invitrogen, Molecular Probes, F36206) as previously described. […] Intracellular calcium changes were recorded as indicated on either a NOVOstar (BMG Labtech) at 37 °C with an excitation filter of 485 nm and an emission filters 520 nm or a FlexStation 3 Benchtop Multi-Mode Microplate Reader (Molecular Devices) at 37 °C with an excitation wavelength of 485 nm and emission of 525 nm.
(§3) All pharmacological data have been analyzed by using Prism 6.0 (GraphPad Software Inc., San Diego). […] Changes in potency (pEC50) and span of myc-GPR139(WT) in comparison to untagged GPR139(WT) was statistically analyzed with a paired t-test and significance was accepted at p < 0.05. […]

GPR139 L87A2x64 = biological target: T2, GPR139 L87A2x64 (Homo sapiens, UniProt Q6DWJ6, L87A); experiment: Fluo-4 Ca2+-assay, GPR139 mutant L87A
T2 construct: mGluR5 signal peptide (N); expressed in transfected cells; host or cells: HEK293
T2 sequence (Q6DWJ6 2-353 L87A limits assumed): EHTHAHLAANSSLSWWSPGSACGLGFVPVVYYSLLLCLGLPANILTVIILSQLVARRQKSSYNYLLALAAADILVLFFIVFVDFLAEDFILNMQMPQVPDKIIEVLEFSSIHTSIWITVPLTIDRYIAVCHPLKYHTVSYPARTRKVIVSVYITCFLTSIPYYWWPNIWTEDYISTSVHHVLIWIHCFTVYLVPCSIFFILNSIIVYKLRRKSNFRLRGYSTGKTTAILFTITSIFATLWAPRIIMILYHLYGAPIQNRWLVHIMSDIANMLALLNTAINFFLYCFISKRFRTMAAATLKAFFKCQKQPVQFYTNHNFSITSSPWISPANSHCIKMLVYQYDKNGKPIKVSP
Excerpt: To study the influence of specific amino acids in the predicted binding pocket on receptor function, the desired mutations were introduced into an N-terminally c-myc-tagged wild type human GPR139 (NM_001002911.3) in the pEGFP-N1 vector (BD Biosciences)[32], [33]. As previously described, these plasmids carry the signal peptide of mGluR5 to promote cell surface expression followed by a c-myc epitope to enable detection of total and surface expression by ELISA, followed by an engineered MluI and NotI site for easy insertion of the receptor of interest. Furthermore, the start-codon in the GPR139 sequence was deleted to ensure c-myc-tagging. Mutagenesis was designed in Serial Cloner 2.6 (© Franck Perez [SerialBasics]) and carried out by GenScript (USA). All mutated residues are illustrated in Supplementary Fig. 1b. An untagged GPR139(WT) in pEGFP-N1 was also generated to ensure that the c-myc-tag had no influence on GPR139(WT) function.
All GPR139 mutants were transfected into HEK293 cells. The HEK293 cells were grown in Dulbecco’s modified Eagle’s medium (DMEM) (Gibco, 41965) supplemented with 10% dialyzed fetal bovine serum (Gibco, 26400, United States origin), 100 units/mL penicillin and 100 μg/mL streptomycin (Gibco, 15140). HEK293 cells were reverse transfected using Lipofectamine2000 (Invitrogen). […]
as §2, §3

GPR139 H113A3x37 = biological target: T3, GPR139 H113A3x37 (Homo sapiens, UniProt Q6DWJ6, H113A); experiment: Fluo-4 Ca2+-assay, GPR139 mutant H113A
T3 construct: mGluR5 signal peptide (N); expressed in transfected cells; host or cells: HEK293
T3 sequence (Q6DWJ6 2-353 H113A limits assumed): T2 sequence (Q6DWJ6 2-353 L87A limits assumed) with A86L, H112A
Excerpt: as §1, §2, §3

EC50 (untagged GPR139(WT)): 772 nM | EC50 (GPR139 L87A2x64; L87A mutant): 479 nM | change of potency (GPR139 L87A2x64; L87A mutant versus WT (reduced surface expression)): equipotent | Emax (GPR139 L87A2x64; L87A, normalized to buffer (0%) and 8 µM 1a (100%)): 75 ± 17% | EC50 (GPR139 H113A3x37; H113A mutant): 851 nM | Emax (GPR139 H113A3x37; H113A, normalized to buffer (0%) and 8 µM 1a (100%)): 97 ± 9%
Compound: COc1cc(OC)cc(C(=O)NNC(=O)Nc2cccc3ccccc23)c1 [Compound 1a]
